Data on three compounds can be found in patent publication US11331333B2, “Treatment of aberrant fibroblast proliferation” (Georg August Universitaet Goettingen Stiftung Oeffentlichen …, priority 2019, dated 2022).

The subject of data set [1] is primary murine fibroblast cultures overexpressing EYA1A. The data set can be described thus: γH2A.X^pY142 labelling after NCS exposure in fibroblasts overexpressing EYA1A. The format is cell-based, mouse. The settings on record: 60 minutes after NCS exposure. The source says:
FIGS. 12A-12B show the effect of the established EYA1 γH2A.X^pY142 tyrosine phosphatase inhibitors Na3VO4 (blocking tyrosine phosphatase activity) and caffeine (blocking ATM-dependent recruitment of EYA1 towards γH2A.X) on γH2A.X^pY142 dephosphorylation and fibroblast accumulation. FIG. 12A depicts results of an analysis of photomicrographs of primary murine fibroblast cultures transfected with control plasmids (vector) and plasmids overexpressing EYA1A (EYA1A^oe) or EYA1C (EYA1C^oe). Cells were exposed to either Na3VO4 or caffeine and labelled for 7H2A.X^pY142 60 minutes after NCS exposure (n=100 nuclei each, data are presented as means±s.d., **p<0.01, # no significance, values of p were calculated using Student's t test comparing indicated groups). FIG. 12B depicts results of an analysis of proliferative activity of primary murine fibroblasts transfected with indicated constructs, seeded at a density of 60,000 per well. Proliferative activity was determined at indicated time points after exposure to Na3VO4 or caffeine (n=3 independent replicates, data are presented as means±s.d., ***p<0.001, ****p<0.0001, values of p were calculated using one-way ANOVA with Bonferroni post-hoc analysis comparing control and Na3VO4^− or caffeine-treated cultures overexpressing EYA1A). […]

The test system of data set [2] is DNA damage checkpoint activation. The experiment in a line: Immunoblotting of p-Chk1^pS317 and p-Chk2^pT68 after NCS exposure. The format is cell-based, human. As to conditions: 24 hours after NCS exposure. The source says:
(§1) FIGS. 20A to D depict average foci per nucleus detected in human TK173 and TZ1 cultures transfected with EYA1Δe10-ASO and labelled for γH2A.X^pS139 (FIG. 20A), γH2A.X^pS139/γH2A.X^py142 (FIG. 20B), γH2A.X^pS139/53Bp1 (FIG. 20C), and γH2A.X^pS139/Rpa1 (FIG. 20D) at indicated time points after NCS exposure (n=100 nuclei each, data are presented as means±s.d.). FIGS. 20E and F depict data on the analysis of NHEJ and HR events […] (NHEJ, FIG. 20E) and pDR-GFP (HR, FIG. 20F) reporter plasmids (n=3 independent replicates, data are presented as means±s.d., **p<0.01, ***p<0.001, values of p were calculated using Student's t test comparing indicated groups). FIG. 20G depicts proliferative activity of human kidney fibroblasts at indicated time points after seeding at a density of 60,000 per well (n=3 independent replicates, data are presented as means s.d., and *p<0.05, values of p were calculated using Student's t test comparing EYA1Δe10-ASO-transfected TZ1 with untreated TZ1 cultures). FIG. 20H depicts an analysis of p-Chk1^pS317 and p-Chk2^PT68 by SDS-PAGE and subsequent immunoblotting 24 hours after NCS exposure.
Tissue and cells were homogenized in NP40 lysis buffer (Life technologies, Carlsbad, USA) supplemented with protease inhibitor cocktail (Roche, Basel, Switzerland). […]
Background: Immunoblotting shows a protein as a band on a membrane.

Data set [3] deals with human TK173 and TZ1 cultures. The data set can be described thus: DNA damage response foci and NHEJ/HR reporters after NCS exposure in human fibroblast cultures. In kind it is cell-based.
Excerpt: as §1, with “exposure. […]” for “exposure.”

Consider `Cn1c(=O)c2c(ncn2C)n(C)c1=O` [caffeine], for which the “EYA1A-induced premature γH2A.X^pY142 dephosphorylation” value in data set [1] was “reversed”.
As for `[Na+].[Na+].[Na+].[O]=[V]([O-])([O-])[O-]` [Na3VO4, sodium orthovanadate], the “EYA1A-induced premature γH2A.X^pY142 dephosphorylation” value in data set [1] is “reversed”.
As to “EYA1Δe10-ASO: oligonucleotides targeting intron 9-10/exon 10 (SEQ ID NO: 5) and exon 10/intron 10-11 (SEQ ID NO: 4) splice junctions (antisense 1 CCTTGGACTGCGAATG; antisense 2 TTTCAACTTGGCAGTA; listed as DNA, chemistry not given here)”, in data set [2], the “DNA damage checkpoint activation” value is “normalized DNA damage checkpoint activation”. For the same compound, in data set [3] (TZ1, after NCS exposure), the “premature γH2A.X^pY14 dephosphorylation” value was “normalization”. Besides, the “HR DDR” value in data set [3] (TZ1, pDR-GFP reporter, Rpa1 foci) was “increased HR DDR”.
